The experiment has as its target T1, SaMTAN (5′-methylthioadenosine/S-adenosylhomocysteine nucleosidase) (Staphylococcus aureus, UniProt Q99TQ0).
T1 sequence (Q99TQ0 1-228): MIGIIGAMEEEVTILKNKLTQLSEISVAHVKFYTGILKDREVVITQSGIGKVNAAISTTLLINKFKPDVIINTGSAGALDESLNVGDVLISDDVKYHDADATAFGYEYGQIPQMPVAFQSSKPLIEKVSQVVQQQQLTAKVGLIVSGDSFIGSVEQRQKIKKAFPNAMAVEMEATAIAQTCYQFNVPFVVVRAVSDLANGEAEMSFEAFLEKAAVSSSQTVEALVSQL
Put plainly: ITC. Type of experiment: binding.

In turn, `CSC[C@H]1CN(Cc2c[nH]c3c(N)ncnc23)C[C@@H]1O` [MT-DADMe-ImmA] returned a Kd of 9 nM.

The values above are taken from PMC3977580 (Biochemistry, 2014).
